Source: patent publication US20160370353A1, “METHOD FOR DISTINGUISHING SECRETORY GRANULES OF DIFFERENT AGES” (TECHNISCHE UNIVERSITÄT DRESDEN MEDIZINISCHE FAKULTÄT CARL …, priority 2008, published 2016)

System: SNAP-tag (hINS-SNAP) in INS-1 cells
Experiment: Dual-color labeling (TMR-Star, BTP block, BG505) of living INS-1 cells expressing hINS-SNAP; co-localization analysis
Format: cell-based, rat
Description: The first labeling was carried out for 15 min with 2 μM TMR (red) in normal media (I ml per well), followed by 2×PBS wash and 30 min, incubation in media without the SNAP substrate. The labeling with 10 μM BTP lasted 20 min. followed by two washings with PBS and 30 min incubation in media without BTP. The period between the BTP administration and the BG505 (green) administration was 4 hour long, so that any unbound BTP had sufficient time to be cleared out of the cells, thus allowing the labeling of newly synthesized hlns-SNAP. During this period […] additional washings were performed: two times with PBS and two times with media.
Cells were then incubated with 10 μM BG505 for 30 min, followed by two washings with PBS, 30 min incubation in media and another PBS washing. After the last washing, the cells were fixed (4% PFA, pH: 7.4 for 10 min at 4° C.) and embedded (ProLong Gold antifade reagent with DAPI, P36931, Molecular Probes). […]
Software analysis of the acquired images allowed the generation of images representing the co-localized pixels from both channels and also the characteristic scattered plots. […] The calculated Pearson's coefficients (10 μM BTP: 0.515; 0 μM BTP: 0.829) calculated according to Bolte et al., are in agreement with this interpretation.

SNAP-tag (hINS-SNAP) in INS-1 cells, sequence (P16455 1-182 C62A/K125A/A127T/R128A/G131K/G132T/M134L/R135S/C150S/N157G/S159E limits assumed): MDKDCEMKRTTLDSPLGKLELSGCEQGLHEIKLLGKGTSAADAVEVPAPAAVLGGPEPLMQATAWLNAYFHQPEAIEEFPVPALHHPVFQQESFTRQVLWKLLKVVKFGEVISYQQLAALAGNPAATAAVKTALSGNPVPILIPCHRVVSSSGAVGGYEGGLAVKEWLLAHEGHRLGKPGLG

How did the “Pearson's coefficient (co-localization of TMR and BG505 pixels)” value (INS-1 cells exposed sequentially to TMR, 10 μM BTP and BG505, control without blocker (0 μM BTP): 0.829) turn out when bromothenylpteridine [BTP] was run?
The value was 0.515.

What about the “Co-localized pixels (white) of red and green channels” value (blocking step with BTP interposed between sequential labelings with TMR-Star and BG505, many co-localized pixels when BTP omitted) of the same substance?
Its value is “No co-localization”.
